Tests used:
AR42J cells = experiment: Cell affinity determination, similar method; assay type: cell-based
Method: (§1) HT-1080-FAP cells were inoculated into a 24-well plate 24 hours in advance, with the density being about 30% (calculated and estimated), 10^5 cells (countable) per well. 0.5 mL of a complete medium was added. The medium was changed to a serum-free medium. 12 groups of FAPI-CB-01 solutions with a concentration gradient of 0-5000 nM were set up, with internal replicates n=4 for each group. […] 0.75 nM ^68Ga-FAPI-04 was added to each well, followed by incubation at 37° C. for 1 hour. After washing twice with cold PBS and lysis, the radioactivity count was measured.
(§2) Using a similar method, the corresponding targeting PSMA-CB-05, FOLR1-CB-06, SSTR2-CB-02, Nectin4-CB-02, and CXCR4-CB-03 were determined for affinity in LNCaP cells, KB cells, AR42J cells, SW-780 cells, or Daudi cells, respectively. All of these compounds maintained good affinity.

Human FAP Protein = biological target: T1, Human FAP Protein (Homo sapiens, UniProt Q12884); experiment: Surface plasmon resonance, multi-cycle mode; assay type: binding; conditions: SPR multi-cycle, 1:1 binding model
T1 construct: His; purchased Novoprotein (China)
T1 sequence (Q12884 1-760): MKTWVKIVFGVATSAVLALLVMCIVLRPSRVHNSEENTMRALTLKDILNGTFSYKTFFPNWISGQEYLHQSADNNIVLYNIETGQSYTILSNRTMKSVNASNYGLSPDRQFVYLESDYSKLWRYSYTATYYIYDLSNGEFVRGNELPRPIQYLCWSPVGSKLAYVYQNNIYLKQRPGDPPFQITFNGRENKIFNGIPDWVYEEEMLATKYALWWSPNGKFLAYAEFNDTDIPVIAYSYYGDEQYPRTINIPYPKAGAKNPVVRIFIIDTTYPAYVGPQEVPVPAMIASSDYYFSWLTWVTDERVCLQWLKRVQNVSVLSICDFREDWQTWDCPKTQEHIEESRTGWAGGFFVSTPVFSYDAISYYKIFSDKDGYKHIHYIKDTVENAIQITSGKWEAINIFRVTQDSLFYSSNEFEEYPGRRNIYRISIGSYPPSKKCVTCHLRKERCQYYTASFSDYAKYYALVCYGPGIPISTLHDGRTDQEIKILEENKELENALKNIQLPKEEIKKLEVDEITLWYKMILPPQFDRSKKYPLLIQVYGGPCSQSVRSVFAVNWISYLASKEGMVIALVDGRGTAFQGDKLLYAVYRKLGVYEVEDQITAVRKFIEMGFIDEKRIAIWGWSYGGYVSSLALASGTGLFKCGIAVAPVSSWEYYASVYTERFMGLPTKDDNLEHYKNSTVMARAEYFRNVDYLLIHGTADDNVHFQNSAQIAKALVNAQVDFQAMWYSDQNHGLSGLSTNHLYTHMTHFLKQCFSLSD
Method: According to US Pharmacopeia USP43 IMMUNOLOGICAL TEST METHODS-SURFACE PLASMON RESONANCE<1105> and Chinese Pharmacopoeia 2020, Volume IV, Surface plasmon resonance method, Label-free Immunochemistry (IV), 3429 Immunochemistry, General Rule, a surface plasmon resonance experiment was carried out.
A surface plasma chromatograph from Cytiva was used for measurement. Before protein injection, 400 mM condensing agent 1-ethyl-(3-dimethylaminopropyl)carbodiimide hydrochloride and 100 mM N-hydroxysuccinimide were mixed, and a CM5 sensor chip was activated with this mixture for 420 seconds at a flow rate of 10 μL/min. 50 μg/mL protein was then injected into an Fc2 sample channel at a flow rate of 10 μL/min to achieve a protein immobilization level of about 8000-15000 RU. In the control group, no protein was injected. Subsequently, the unreacted chip was blocked with 1M ethanolamine hydrochloride-NaOH at a flow rate of 10 μL/min for 420 seconds.
Different gradient solutions were injected into channels Fc1-Fc2 at a flow rate of 30 μL/min, followed by a 60-second binding phase and a 90-second dissociation phase, and data were collected.

LNCaP cells = experiment: Cell affinity determination, similar method; assay type: cell-based
Method: as §1, §2

With `C[C@@H](O)[C@H](NC(=O)[C@@H]1CSSC[C@H](NC(=O)[C@@H](Cc2ccccc2)NC(=O)CN2CCN(CC(=O)O)CCN(CC(=O)O)CCN(CC(=O)O)CC2)C(=O)N[C@@H](Cc2ccc(OS(=O)(=O)F)cc2)C(=O)N[C@H](Cc2c[nH]c3ccccc23)C(=O)N[C@@H](CCCCN)C(=O)N[C@@H]([C@@H](C)O)C(=O)N1)C(=O)O` [SSTR2-CB-02] the affinity (AR42J cells) was “good affinity”.

In the case of `N#C[C@@H]1CC(F)(F)CN1C(=O)CNC(=O)c1ccnc2ccc(OCCCN3CCN(C(=O)CN4CCN(CC(=O)O)CCN(CC(=O)O)CCN(CC(=O)O)CC4)CC3)cc12` [FAPI-04, reference compound], the “Rmax (maximum theoretical analyte binding capacity)” value (Human FAP Protein) is reported as 21.7 RU, the ka (Human FAP Protein) is reported as 845000 M⁻¹ s⁻¹ and the kd (Human FAP Protein) is reported as 0.000311 s⁻¹.

In the case of `O=C(O)CC[C@H](NC(=O)N[C@@H](CCCCNC(=O)[C@H](Cc1ccc2ccccc2c1)NC(=O)[C@H]1CC[C@H](CNC(=O)[C@H](CCCCNC(=O)CCc2cccc(S(=O)(=O)F)c2)NC(=O)CN2CCN(CC(=O)O)CCN(CC(=O)O)CCN(CC(=O)O)CC2)CC1)C(=O)O)C(=O)O` [PSMA-CB-05], the affinity (LNCaP cells) is reported as “good affinity”.

From patent US20260137820A1, “TRIFUNCTIONAL COMPOUND AND USE THEREOF” (PEKING UNIVERSITY, priority 2022, published 2026)
